Structures can show the parent of a compound that is named as a salt.
Legend:
[1] = tested on: hereditary angioneurotic edema; conditions: in vivo; cited from earlier work
[2] = tested on: complement system; conditions: cited from earlier work
[3] = tested on: whole complement; experiment: Complement Level Reduction Test: serum whole complement of dosed guinea pigs by capillary tube assay; assay type: in vivo; conditions: guinea pig, vs simultaneous controls
From the text: An active inhibitor protects C2 from C1 and C4; (ii) Test, Code 035 (C3-C9 inhibitor) -- This test determines the ability of the late components of human complement (C3-C9) to lyse EAC 142 in the presence of appropriate dilutions of the test compound. An active inhibitor protects EAC 142 from lysis by human C3-C9; (iii) Test, Code 036 (C-Shunt inhibitor) -- In this test human erythrocytes rendered fragile are lysed in autologous serum via the shunt pathway activated by cobra venom factor in the presence of appropriate dilutions of the test compound. Inhibition of the shunt pathway results in failure of lysis; (iv) Forssman Vasculitis Test -- Here, the well known complement dependent lesion, Forssman vasculitis, is produced in guinea pigs by intradermal injection of rabbit anti-Forssman antiserum. The lesion is measured in terms of diameter, edema and hemorrhage and the extent to which a combined index of these is inhibited by prior intraperitoneal injection of the test compound at 200 mg/kg is then reported, unless otherwise stated; (v) Forssman Shock Test -- Lethal shock is produced in guinea pigs by an i.v. injection of anti-Forssman antiserum and the harmonic mean death time of treated guinea pigs is compared with that of simultaneous controls; (vi) Complement Level Reduction Test -- In this test, the above dosed guinea pigs, or others, are bled for serum and the complement level is determined in undiluted serum by the capillary tube method of U.S. Pat. No. 3,876,376 and compared to undosed control guinea pigs; and (vii) Cap 50 Test -- Here, appropriate amounts of the test compound are added to a pool of guinea pig serum in vitro, after which the undiluted serum capillary tube assay referred to above is run. The concentration of compound inhibiting 50% is reported.
With reference to Table I, guinea pigs weighing about 300 g were dosed intravenously (i.v.) or intraperitoneally (i.p.) with 200 mg/kg of the test compound dissolved in saline and adjusted to pH 7-8. […] The serum was tested for whole complement using the capillary tube assay. Percent inhibition was calculated by comparison with simultaneous controls. The results appear in Table I together with results of tests, code 026, 035, 036, Cap 50, % inhibition and Forssman shock.

[4] = tested on: late components of human complement (C3-C9); experiment: Test, Code 035 (C3-C9 inhibitor): lysis of EAC 142 by late components of human complement; assay type: biochemical; conditions: well number in two-fold serial dilution assay; higher well number indicates higher activity
From the text: An active inhibitor protects C2 from C1 and C4; (ii) Test, Code 035 (C3-C9 inhibitor) -- This test determines the ability of the late components of human complement (C3-C9) to lyse EAC 142 in the presence of appropriate dilutions of the test compound. An active inhibitor protects EAC 142 from lysis by human C3-C9; (iii) Test, Code 036 (C-Shunt inhibitor) -- In this test human erythrocytes rendered fragile are lysed in autologous serum via the shunt pathway activated by cobra venom factor in the presence of appropriate dilutions of the test compound. Inhibition of the shunt pathway results in failure of lysis; (iv) Forssman Vasculitis Test -- Here, the well known complement dependent lesion, Forssman vasculitis, is produced in guinea pigs by intradermal injection of rabbit anti-Forssman antiserum. […]

[5] = tested on: total hemolytic complement activity (human serum); conditions: in vitro and in vivo, reduction in total hemolytic complement activity; cited from earlier work

## Cc1ccc(C(=O)Nc2ccc(S(=O)(=O)O)c3cc(S(=O)(=O)O)cc(S(=O)(=O)O)c23)cc1NC(=O)c1cccc(NC(=O)Nc2cccc(C(=O)Nc3cc(C(=O)Nc4ccc(S(=O)(=O)O)c5cc(S(=O)(=O)O)cc(S(=O)(=O)O)c45)ccc3C)c2)c1 [Suramin]
[1]
  use in treatment of hereditary angioneurotic edema: used with success
[2]
  anticomplementary effect / complement inhibition: competitive inhibitor of the complement system

## O=S(=O)(O)c1cc(NC(=S)Nc2cc(NC(=S)Nc3cc(S(=O)(=O)O)cc4cc(S(=O)(=O)O)cc(S(=O)(=O)O)c34)cc(NC(=S)Nc3cc(S(=O)(=O)O)cc4cc(S(=O)(=O)O)cc(S(=O)(=O)O)c34)c2)c2c(S(=O)(=O)O)cc(S(=O)(=O)O)cc2c1 [8,8',8"-[s-Phenenyltris(2-thioureylene)]tri-1,3,6-naphthalenetrisulfonic acid nonasodium salt]
[3]; 200 mg/kg i.p., 30 mins.
  % change in serum whole complement level: -81%
[3]; 200 mg/kg i.p., 60 mins.
  % change in serum whole complement level: -84%
[3]; 200 mg/kg i.p., 120 mins.
  % change in serum whole complement level: -91%
[3]; 200 mg/kg i.v., 2 mins.
  % change in serum whole complement level: -98%
[3]; 200 mg/kg i.v., 30 mins.
  % change in serum whole complement level: -92%
[3]; 200 mg/kg i.v., 120 mins.
  % change in serum whole complement level: -86%
[4]
  C-Late 035 Wells: +1 Wells

## NCCCCCC(=O)O [epsilon-aminocaproic acid]
[1]
  use in treatment of hereditary angioneurotic edema: used with success

## Nc1ccc2cc(S(=O)(=O)O)cc(O)c2c1N=Nc1ccc(NC(=O)Nc2ccc(N=Nc3c(N)ccc4cc(S(=O)(=O)O)cc(O)c34)c(S(=O)(=O)O)c2)cc1S(=O)(=O)O [chlorazol fast pink, 3,3'-ureylenebis-[6-(2-amino-8-hydroxy-6-sulfo-1-naphthylazo)]benzenesulfonic acid, tetrasodium salt]
[2]
  anticomplementary effect / complement inhibition: anticomplementary effect

## heparin
[2]
  anticomplementary effect / complement inhibition: anticomplementary effect

## NC[C@H]1CC[C@H](C(=O)O)CC1 [tranexamic acid]
[1]
  use in treatment of hereditary angioneurotic edema: used with success

## pentosan-poly-sulfoester
[5]
  anticomplementary activity on human serum: anticomplementary activity on human serum both in vitro and in vivo
